The results in this text go back to patent publication US4076659A, “L-Val^10 -somatostatin and intermediates thereto” (Eli Lilly and Company, priority 1976, dated 1978).

Bridge positions count the residues as written; N and C are the ends. Peptide text beside a SMILES is read from it.

The test system of the test is release of growth hormone. Description: Inhibition of growth hormone release in sodium pentobarbitol-stimulated rats (modified Brazeau method). Format: in vivo, mature male Spraque-Dawley rats. Conditions: subcutaneously, sodium pentobarbitol-stimulated GH secretion, vs saline control group. The protocol: The product from Example 4 was tested for its activity in inhibiting the release of growth hormone. The procedure which was employed is carried out using mature male Spraque-Dawley rats (Laboratory Supply Company, Indianapolis, Indiana). The test is a modification of the method of P. Brazeau, W. Vale, and R. Guilleman, Endocrinology, 94 184 (1974). In this assay, five groups of eight rats each were employed. First, sodium pentobarbitol was administered to all 40 rats to stimulate growth hormone secretion. One of the groups of eight rats is the control group and received only saline. Two of the groups received somatostatin, one at 2 μg./rat, subcutaneously, and the other at 50 μg./rat, subcutaneously. The other two groups received L-Val^10 -somatostatin, one at 2 μg./rat, subcutaneously and the other at 50 μg./rat, subcutaneously. The degree of inhibition of serum growth hormone concentration then was determined with respect to the control group, and the relative activities of L-Val^10 -somatostatin and somatostatin itself were compared.

In the case of `CC(C)[C@@H]1NC(=O)[C@H](CCCCN)NC(=O)[C@H](Cc2c[nH]c3ccccc23)NC(=O)[C@H](Cc2ccccc2)NC(=O)[C@H](Cc2ccccc2)NC(=O)[C@H](CC(N)=O)NC(=O)[C@H](CCCCN)NC(=O)[C@@H](NC(=O)CNC(=O)[C@H](C)N)CSSC[C@@H](C(=O)O)NC(=O)[C@H](CO)NC(=O)[C@H]([C@@H](C)O)NC(=O)[C@H](Cc2ccccc2)NC1=O` [L-Val^10 -somatostatin] (H-AGCKNFFWKVFTSC-OH; disulfide 3-14), the “diminished serum growth hormone concentration over control” value (2 μg./rat) is on record as 49%. In addition, the “diminished serum growth hormone concentration over control (inhibition)” value (50 μg./rat) is listed as 72%.
